This is an account of results in US20230024438A1, “INHIBITORS OF HIF-2ALPHA” (ARCUS BIOSCIENCES, INC., priority 2019, published 2023).

For one assay, the target named is T1, HIF-2α (Homo sapiens, UniProt Q99814).
T1 construct: endogenous in cells; host or cells: 786-O cells (ATCC CRL-1932) stably carrying the Cignal Lenti HIF Luc Reporter
The assay is described as follows: HIF-2α Luciferase Reporter Assay. Format: cell-based. As to conditions: HIF-Luc-786-0 cells, 20 hours incubation, luciferase activity; read-out: HIF-2α Luciferase Assay. On the procedure:
Stable cell lines were generated by transducing 786-O cells (ATCC, CRL-1932) with Cignal Lenti HIF Luc Reporter lentivirus (CLS-007L, Qiagen) according to the manufacturer's guidelines. In brief, 0.3×10^6 786-0 cells were transduced with lentivirus at a Multiplicity of Infection (MOI) of 25 for 24 hours. After transduction, cells were replenished with fresh RPMI 1640 Medium (Cat. No. 11875085, Thermo Fisher,) supplemented with 10% FBS (Cat. No. A3160502, Gibco), 2 mM GlutaMax (Cat. No. 35050-061, Invitrogen) and 100 units of penicillin and 100 μg of streptomycin/mL (Cat. No 15070063, Thermo Fisher) for another 24 hours. Antibiotic selection was performed in cell media containing 4 μg/mL of Puromycin. After 7 days of antibiotic selection, stable pools of surviving cells were expanded and used in a luciferase reporter assay.
On day one, 20 uL of HIF-Luc-786-0 cells in OptiMem (Cat. No. 31985088, Thermo Fisher) were seeded into each well of a 384 well white opaque plate (Corning 3570) and incubated at 37° C. and 5% CO2. Twenty microliters of 2× test compounds in OptiMem were added to cells after 4 hours of incubation. Final assay conditions comprised 20,000 cells per well in 1% DMSO with test compound concentrations ranging from 50 uM to 0 uM. After 20 hours incubation at 37° C. and 5% CO2, luciferase activity was determined using ONE-Glo Luciferase Assay Reagent (E6110, Promega) following the manufacture's recommended procedure. Briefly, 40 uL of ONE-Glo luciferase reagents were added to each well and luciferase signals were measured using an Envision 2102 Multilabel Reader. Percentage maximum activity in each test well was calculated based on DMSO (maximum activity) and no cell control wells (baseline activity). The IC50 values of the test compounds were determined from compound dose response curves fitted using a standard four parameter fit equation.
(In general: In a reporter assay the amount or activity of a reporter protein is the signal.)

Assay [1] deals with T2, Histidine tagged HIF-2α protein containing PAS-B domain (240-350) (Homo sapiens, UniProt Q99814).
T2 construct: Histidine tagged HIF-2α protein containing PAS-B domain (240-350) was prepared and purified in house; made in house
T2 sequence (Q99814 240-350): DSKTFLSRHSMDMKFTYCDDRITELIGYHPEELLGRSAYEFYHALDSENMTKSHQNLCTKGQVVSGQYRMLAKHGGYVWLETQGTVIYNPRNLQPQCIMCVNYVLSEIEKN
The assay is described as follows: HIF-2α Scintillation Proximity Assay (SPA). It counts as binding. The note with it: 50 nM HIF-2α protein, 25 nM radiolabeled tracer; read-out: HIF-2α Scintillation Proximity Assay. Here is the method: Tritium labeled compound N-(3-chlorophenyl)-4-nitro-2,1,3-benzoxadiazol-5-amine was obtained from American Radiolabeled Chemicals Inc. and copper chelate PVT SPA beads were from PerkinElmer (Cat #RPNQ0095). Histidine tagged HIF-2α protein containing PAS-B domain (240-350) was prepared and purified in house.
Compounds solubilized in DMSO were dispensed into a white 384-well polystyrene non-binding flat clear bottom plate (Greiner Bio-One, Cat #781903) using an HP D300 dispenser. Ten microliters of HIS-tagged HIF-2α protein in buffer (25 mM Tris-HCl, pH 7.4, 150 mM NaCl, 0.15% BSA and 0.001% Tween 20) was added to the compound wells and allowed to incubate for 1 hour at room temperature. Ten microliters of SPA bead mix were added to the wells and incubated for an additional 45 minutes, followed by 10 ul of ^3H-tracer solution. Final assay conditions comprised 50 nM HIF-2α protein, 25 nM radiolabeled tracer and 3 ug beads per well with compounds in 2% DMSO. The plate was read using a MicroBeta Microplate Counter (PerkinElmer) for luminescence detection. The IC50 values of the test compounds were determined from compound dose response curves fitted using a standard four parameter fit equation and are reported in Table 1.
(In general: SPA uses beads or plates that emit light when radiolabelled molecules are held near them.)

T1 sequence (Q99814 whole entry): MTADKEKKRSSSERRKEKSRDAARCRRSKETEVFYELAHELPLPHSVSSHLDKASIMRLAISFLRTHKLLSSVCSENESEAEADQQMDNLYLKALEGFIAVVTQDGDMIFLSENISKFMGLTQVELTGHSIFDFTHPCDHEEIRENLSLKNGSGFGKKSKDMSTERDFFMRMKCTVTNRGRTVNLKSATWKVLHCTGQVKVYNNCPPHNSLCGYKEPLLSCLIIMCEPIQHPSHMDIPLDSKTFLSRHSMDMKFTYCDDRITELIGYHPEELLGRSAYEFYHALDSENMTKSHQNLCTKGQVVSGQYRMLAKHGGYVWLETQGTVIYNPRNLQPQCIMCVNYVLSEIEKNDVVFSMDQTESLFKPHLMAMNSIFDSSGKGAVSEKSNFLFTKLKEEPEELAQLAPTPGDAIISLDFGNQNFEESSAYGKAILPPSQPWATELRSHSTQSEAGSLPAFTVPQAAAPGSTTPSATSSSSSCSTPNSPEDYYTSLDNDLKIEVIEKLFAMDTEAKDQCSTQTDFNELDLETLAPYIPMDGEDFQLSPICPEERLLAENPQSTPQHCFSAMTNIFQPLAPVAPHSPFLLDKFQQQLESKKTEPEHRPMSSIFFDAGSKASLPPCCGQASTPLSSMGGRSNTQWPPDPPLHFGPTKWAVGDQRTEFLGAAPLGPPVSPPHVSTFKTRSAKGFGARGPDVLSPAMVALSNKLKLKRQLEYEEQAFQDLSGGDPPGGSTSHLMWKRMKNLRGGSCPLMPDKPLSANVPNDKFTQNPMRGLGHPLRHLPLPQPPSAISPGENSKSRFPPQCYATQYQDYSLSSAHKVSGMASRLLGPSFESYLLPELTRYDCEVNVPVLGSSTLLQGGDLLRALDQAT

`Fc1cc(Cl)cc(Oc2cnc(C(F)(F)F)c3[nH]ncc23)c1` [Example 69, 4-(3-Chloro-5-fluorophenoxy)-7-(trifluoromethyl)-1H-pyrazolo[3,4-c]pyridine]: the IC50 (on HIF-2α; in assay [1]) was 1 to 10 µM each time.
Turning to `O=S(=O)(c1ccc(Oc2ccccc2)c2cn[nH]c12)C(F)(F)F` [Example 16, 4-Phenoxy-7-(trifluoromethylsulfonyl)-1H-indazole], the IC50 was 1 to 10 µM on HIF-2α and more than 10 µM in assay [1].
Take `CS(=O)(=O)c1ccc(Oc2cc(F)cc(C#N)c2)c2c(CO)n[nH]c12` [Example 11, 3-Fluoro-5-{[3-(hydroxymethyl)-7-methanesulfonyl-1H-indazol-4-yl]oxy}benzonitrile]: the IC50 on HIF-2α was 1 to 10 µM; in assay [1], more than 10 µM.
In the case of `O=S(=O)(c1ccc(Cc2cccc(Cl)c2)c2cn[nH]c12)C(F)(F)F` [Example 59, 4-[(3-Chlorophenyl)methyl]-7-trifluoromethanesulfonyl-1H-indazole], the IC50 at HIF-2α is 1 to 10 µM; in assay [1], more than 10 µM.
The like results for `N#Cc1ccc(Oc2ccc(S(=O)(=O)C(F)(F)F)c3[nH]ncc23)cc1` [Example 19, p[7-(Trifluoromethylsulfonyl)-1H-indazol-4-yloxy]benzonitrile] were, in that order, 1 to 10 µM and more than 10 µM.
The like results for `O=S(=O)(c1ccc(Oc2cc(Cl)cc(OC(F)(F)F)c2)c2cn[nH]c12)C(F)(F)F` [Example 29, 4-[3-Chloro-5-(trifluoromethoxy)phenoxy]-7-(trifluoromethylsulfonyl)-1H-indazole] were, in that order, more than 10 µM and more than 10 µM.
For the molecule `O=S(=O)(c1ccc(Oc2cccc(C(F)(F)F)c2)c2cn[nH]c12)C(F)(F)F` [Example 32, 4-[3-(Trifluoromethyl)phenoxy]-7-(trifluoromethylsulfonyl)-1H-indazole], the IC50 (at HIF-2α; in assay [1]) was more than 10 µM in each case.
Regarding `O=S(=O)(c1ccc(Oc2cncc(Cl)c2)c2cn[nH]c12)C(F)(F)F` [Example 23, 4-[(5-Chloropyridin-3-yl)oxy]-7-trifluoromethanesulfonyl-1H-indazole], the IC50 (on HIF-2α; in assay [1]) was 1 to 10 µM in each case.
On to `N#Cc1cc(F)cc(Oc2ccc(S(=O)(=O)C(F)(F)F)c3[nH]nc(Cl)c23)c1` [Example 61, 3-[(3-Chloro-7-trifluoromethanesulfonyl-1H-indazol-4-yl)oxy]-5-fluorobenzonitrile], for which the results for the IC50 (at HIF-2α; in assay [1]) were more than 10 µM and less than 1 µM, respectively.
Take `Fc1cc(F)cc(Oc2ccc(C(F)(F)F)c3[nH]ncc23)c1` [Example 26, 4-(3,5-Difluorophenoxy)-7-(trifluoromethyl)-1H-indazole]: the IC50 (at HIF-2α; in assay [1]) was 1 to 10 µM each time.
In the case of `N#Cc1cc(F)cc(Oc2ccc(S(=O)(=O)C(F)(F)F)c3cn[nH]c23)c1` [Example 70, 3-Fluoro-5-[4-(trifluoromethylsulfonyl)-1H-indazol-7-yloxy]benzonitrile], the IC50 (at HIF-2α; in assay [1]) was 1 to 10 µM each time.
As for `O=S(=O)(c1ccc(NCc2ccccc2)c2cn[nH]c12)C(F)(F)F` [Example 51, N-benzyl-7-(trifluoromethylsulfonyl)-1H-indazol-4-amine], the IC50 (on HIF-2α; in assay [1]) was more than 10 µM each time.
With `O=S(=O)(c1ccc(Oc2ccc(F)cc2)c2cn[nH]c12)C(F)(F)F` [Example 18, 4-(p-Fluorophenoxy)-7-(trifluoromethylsulfonyl)-1H-indazole], the IC50 is 1 to 10 µM at HIF-2α and more than 10 µM in assay [1].
In the case of `O=S(=O)(c1ccc(NCc2ccccc2F)c2cn[nH]c12)C(F)(F)F` [Example 50, N-[(2-Fluorophenyl)methyl]-7-(trifluoromethylsulfonyl)-1H-indazol-4-amine], the IC50 (on HIF-2α; in assay [1]) was more than 10 µM in each case.
Take `N#Cc1cc(Nc2ccc(S(=O)(=O)C(F)(F)F)c3[nH]ncc23)ccc1F` [Example 48, 2-Fluoro-5-[7-(trifluoromethylsulfonyl)-1H-indazol-4-ylamino]benzonitrile]: the IC50 (at HIF-2α; in assay [1]) was more than 10 µM each time.
As for `N#Cc1cc(F)cc(Oc2ccc(S(=O)(=O)C(F)(F)F)c3[nH]nc(C#N)c23)c1` [Example 60, 4-(3-Cyano-5-fluorophenoxy)-7-trifluoromethanesulfonyl-1H-indazole-3-carbonitrile], the IC50 was 1 to 10 µM on HIF-2α and more than 10 µM in assay [1].
The like results for `N#Cc1cc(F)cc(Oc2ccc(S(=O)(=O)C(F)F)c3[nH]ncc23)c1` [Example 12, 5-[7-(Difluoromethylsulfonyl)-1H-indazol-4-yloxy]-3-fluorobenzonitrile] were, in that order, 1 to 10 µM and 1 to 10 µM.
Turning to `O=S(=O)(c1ccc(Oc2cc(F)c(F)c(F)c2)c2cn[nH]c12)C(F)(F)F` [Example 30, 7-(Trifluoromethylsulfonyl)-4-(3,4,5-trifluorophenoxy)-1H-indazole], the values for the IC50 (on HIF-2α; in assay [1]) were more than 10 µM and 1 to 10 µM, respectively.
The like results for `N#Cc1cccc(Oc2ccc(S(=O)(=O)C(F)(F)F)c3[nH]ncc23)c1` [Example 42, 3-[[7-(Trifluoromethylsulfonyl)-1H-indazol-4-yl]oxy]benzonitrile] were, in that order, 1 to 10 µM and less than 1 µM.
The like results for `O=S(=O)(c1ccc(Oc2ccc(F)c(F)c2)c2cn[nH]c12)C(F)(F)F` [Example 37, 4-(3,4-Fifluorophenoxy)-7-(trifluoromethylsulfonyl)-1H-indazole] were, in that order, 1 to 10 µM and 1 to 10 µM.
Take `N#Cc1cc(F)cc(Oc2ccc(S(=O)(=O)C(F)F)c3[nH]nc(I)c23)c1` [Example 13, 5-[7-(Difluoromethylsulfonyl)-3-iodo-1H-indazol-4-yloxy]-3-fluorobenzonitrile]: the IC50 on HIF-2α was 1 to 10 µM; in assay [1] it was more than 10 µM.
On to `N#Cc1cc(F)cc(Oc2cnc(C(F)(F)F)c3[nH]ncc23)c1` [Example 68, 3-Fluoro-5-{[7-(trifluoromethyl)-1H-pyrazolo[3,4-c]pyridin-4-yl]oxy}benzonitrile], for which the IC50 (on HIF-2α; in assay [1]) was 1 to 10 µM each time.
`CS(=O)(=O)c1ccc(Oc2ccc(F)cc2F)c2cn[nH]c12` [Example 4, 4-(2,4-Difluorophenoxy)-7-methanesulfonyl-1H-indazole]: the IC50 (at HIF-2α; in assay [1]) was more than 10 µM in each case.
Regarding `O=S(=O)(c1ccc(Oc2ccc(Cl)cc2)c2cn[nH]c12)C(F)(F)F` [Example 17, 4-(p-Chlorophenoxy)-7-(trifluoromethylsulfonyl)-1H-indazole], the IC50 at HIF-2α was 1 to 10 µM; in assay [1], more than 10 µM.
The like results for `O=S(=O)(c1ccc(NC2CC(F)(F)C2)c2cn[nH]c12)C(F)(F)F` [Example 57, N-(3,3-Difluorocyclobutyl)-7-trifluoromethanesulfonyl-1H-indazol-4-amine] were, in that order, more than 10 µM and 1 to 10 µM.
Regarding `O=S(=O)(c1ccc(NCc2ccc(F)cc2C(F)(F)F)c2cn[nH]c12)C(F)(F)F` [Example 55, N-[[4-fluoro-2-(trifluoromethyl)phenyl]methyl]-7-(trifluoromethylsulfonyl)-1H-indazol-4-amine], the IC50 (on HIF-2α; in assay [1]) was more than 10 µM throughout.
With `N#Cc1cc(F)cc(Nc2ccc(S(=O)(=O)C(F)(F)F)c3[nH]ncc23)c1` [Example 45, 3-Fluoro-5-[(7-trifluoromethanesulfonyl-1H-indazol-4-yl)amino] benzonitrile], the IC50 (at HIF-2α; in assay [1]) was 1 to 10 µM throughout.
